Experimental data: EP2714063B1, “VEGFR2/3-ACTIVATING AGENT FOR USE IN THE TREATMENT OF COGNITIVE DYSFUNCTIONS” (priority 2011, dated 2012)

How the values were obtained:
VEGFD = type: cell-based, C57BL/6 mice; conditions: treatment from DIV5 to DIV10; 1 µM TTX, 10 µM MK801, 10 µM nifedipine
Protocol: RNA extraction and cDNA synthesis. Total RNA was isolated at DIV10 to DIV13 from hippocampal primary neuron cultures or isolated brain tissues with Rneasy Mini Kit (Qiagen, Hilden, Germany) including an optional Dnase I treatment at room temperature for 15 min according to manufacturer's instructions (Qiagen). 1.2 µg of extracted RNA was reverse transcribed into first strand cDNA using High Capacity cDNA Reverse Transcription kit (Applied Biosystems, Foster City, CA).
Real time quantitative PCR. Quantitative reverse transcriptase PCR (qRT-PCR) was done on an ABI7300 thermal cycler using Universal qRT-PCR master mix with TaqMan Gene Expression Assays for the indicated genes (Applied Biosystems). The following TaqMan Gene Expression Assays were used in this study: Gusb (Mm00446953_m1), cFos (Mm00487425_m1), VEGFD (Mm00438965_m1), VEGFC (Mm01202432_m1), VEGF (Mm01281449_m1), VEGFR3 (Mm01292618_m1), beta-actin (Mm00607939_s1), beta-2 microglobulin (Mm00437762_m1), CBP (Mm01342435_m1), p38 MAPK alpha (Mm00442497_m1), p38 MAPK beta (Mm00440955_m1). Expression of target genes was normalized against the expression of Gusb as endogenous control gene. Data were derived from at least 5 independent experiments.

hippocampal neurons = experiment: Morphometric analyses (total dendritic length, Sholl analysis, spine density) of cultured neurons; type: cell-based, C57BL/6 mice
Protocol: Hippocampal cultures and transfection. Hippocampal neurons from newborn C57BL/6 mice were cultured as known in the art. Experiments were done after a culturing period of 10 to 14 days in vitro (DIV). DNA transfection was done on DIV8 using Lipofectamine 2000 (Invitrogen, San Diego, CA). For the studies on dendrite morphology, neurons were analyzed 4-5 days after transfection.
Morphometric analyses. For 3D Sholl Analysis, total dendritic length and spine morphology were calculated using Object-Image freeware software with a specific set of macros (written by Dr. E. Ruthazer, McGill University, Quebec). Briefly, a z-Stack acquisition was imported, calibrated in Object-Image and manually traced. Total dendritic length was then computed. For Sholl analysis, the shell interval was set at 5 µm. All analyses were performed blind. In all in vitro experiments, for each condition, a minimum of 12 neurons from three independent preparations was analyzed. For the Golgi staining quantifications of 20 neurons for each condition from 4 different injected animals per viral construct were traced and analyzed.
Immunocytochemistry. […] For the morphometric analyses, fluorescence images were acquired using a confocal laser-scanning microscope TCS SP2 (Leica, Mannheim, Germany) equipped with an inverted fluorescence microscope DM IRE2 (Leica) and Leica confocal scan software. […]

For `C[C@]12N[C@H](Cc3ccccc31)c1ccccc12` [MK801], the “VEGFD expression (mRNA)” value (VEGFD) was “significantly reduced the expression of VEGFD mRNA”.

`C[S+]([O-])c1ccc(-c2nc(-c3ccncc3)c(-c3ccc(F)cc3)[nH]2)cc1` (stereo not drawn) [SB203580] was tested, and the “effect on the rVEGFD-induced rescue of dendrite length and complexity” value (hippocampal neurons; neurons expressing CaMBP4 (and CaMKIVK75E), treated for 3 days with rVEGFD) was “severely compromised the ability of rVEGFD to rescue the impairment of dendrite length and complexity” and the Sholl analysis (hippocampal neurons; neurons expressing hrGFP, CaMBP4 or CaMKIVK75E, SB203580 without rVEGFD) was “no difference compared to the respective untreated controls”.
